Experimental data: patent US20190000079A1, “Methods and Formulation for Treatment of Nuts, Seeds, Grains, Cereals, Plant Growth Media, and Plants” (Lipotec Laboratories, LLC, priority 2015, published 2019)

Assays:
Experiment in all cases: Growth experiment, coated vs uncoated seeds planted in soil
[1] = test system: soybeans; format: in vivo, soybean
Description: (§1) Groups of coated and uncoated soybeans, corn, sunflower, and turfgrass were planted in soil and monitored for germination.

[2] = test system: sunflower; format: in vivo
Description: as §1

[3] = test system: corn; format: in vivo
Description: as §1

germination time of coated seeds ([1]; soybean seeds coated with DMSO and curcumin, planted in soil, same as uncoated): 2 days | height and diameter, coated vs uncoated ([1]; soybean, after 3 weeks): equal height and diameter | germination time of coated seeds ([2]; sunflower seeds coated with DMSO and curcumin, planted in soil, same as uncoated): 2 days | height and diameter, coated vs uncoated ([2]; sunflower, after 3 weeks): equal height and diameter | germination time of coated seeds ([3]; corn seeds coated with DMSO and curcumin, planted in soil, same as uncoated): 2 days | height and diameter, coated vs uncoated ([3]; corn, after 3 weeks): equal height and diameter
Structure (SMILES): COc1cc(/C=C/C(=O)CC(=O)/C=C/c2ccc(O)c(OC)c2)ccc1O [curcumin, Curcumin]
